Assay results: PMC3126777, “Selective anticancer activity of a hexapeptide with sequence homology to a non-kinase domain of Cyclin Dependent Kinase 4” (Molecular Cancer, 2011)

What was measured:
[1] = test system: RT112 human bladder cancer and H460 human non-small lung cancer cell lines; assay: Cell killing by cyclic amphiphilic peptides (viability and clonogenic survival); format: cell-based
From the text: Attempts to limit proteolysis and improve cell uptake, by incorporating the hexameric peptide sequence into cyclic peptide cassettes were undertaken, initially without success (Table 3,X-XIII). Linear constructs attaching PRGPRP to a known cell-internalising amphiphilic sequence were also unsuccessful (Table 3,XIV and 3XV). […] Selective toxicity to these cancer cell lines, and not normal fibroblasts, was retained (Table 4).
(§1) All cell lines were from certified sources.

[2] = test system: MRC5-hTERT immortalised fibroblasts; assay: Time lapse photomicrography, MRC5-hTERT; format: cell-based, human; details: 200 μM; except for some generalised slowing of growth
Description: Progressive morphological changes in dying H460 cells exposed to 200 μM THR53 [additional file 1], contrasted with progressive cell division in untreated H460 cells [additional file 2] are shown as videos. Immortalised MRC5-hTERT fibroblasts, were unaffected by exposure to 200 μM THR53 except for some generalised slowing of growth (Figure 5A), [additional file 3] as compared to control, untreated, MRC5-hTERT cells [additional file 4]. RT112 cells were more sensitive to THR53 than H460 cells and died within 30 - 40 hours as compared to 96 hours for H460 and the majority of other human cancer cell lines investigated.
Figure 5 Time Lapse Photomicrography of MRC5-hTERT, RT112 human bladder cancer and […] human non-small cell lung cancer following exposure toTHR53. Cells were incubated in Ham's F12 + 10% FCS (control medium) or medium + 200 μM THR53. Morphological changes of vacuolation + cellar swelling are seen in RT112 at 33 hours after exposure to THR53 and in H460 at 90 hours after exposure to THR53. There was no evidence of cell blebbing or fragmentation. (see also videos)

NCI-H460 cells [3] = assay: Cellular ATP levels (CellTiter-Glo assay); format: cell-based, human; details: H460, 100 μM THR53, between 48 and 96 hours, CellTiter-Glo luminescence
Description: Cellular ATP levels (CellTiter-Glo assay) Cells were grown, seeded and compound-treated as for the alamar Blue assay. A volume of the CellTiter-Glo reagent equal to the volume of cell culture media was added to the cells. Plates were mixed for 2 min on an orbital shaker to induce cell lysis before the plate was incubated at room temperature for 10 min to stabilize the signal. The luminescent signal was measured and the media only background was subtracted.

NCI-H460 cells [4] = assay: Mitochondrial function (alamar blue); format: cell-based, human; details: H460, 100 μM THR53, up to 96 hours, Alamar Blue
Description: Mitochondrial function (alamar blue) NCI-H460 cells were grown in Ham's F12 media supplemented with 10% FCS. Cells were harvested and added to 96-well plates at densities of 250-1000. Compounds were made up from stock solutions and added directly to cells at the concentrations indicated. Cells were grown with compound for the indicated time at 37°C, 5% CO2, in a humidified atmosphere. Alamar Blue 10% (v/v) was then added and incubated for a further 4 h, and fluorescent product detected using the BMG FLUOstar plate reader. The media only background was subtracted and the data analysed as appropriate.

MCF7 breast cancer cells = assay: Killing of cycling versus serum-deprived MCF-7 cells; format: cell-based, human
From the text: (§2) Cell death, however, was not dependent on cell division in MCF-7, RT112 or H460. […] had no effect on cell cycle phase distribution in H460 cells (Figure 6B) and […] hexapeptide cancer cell killing was unrelated to endogenous levels of Cdk4 or Cyclin D1. […] A. Macroscopic appearances of cycling […]-treated MCF-7 human breast cancer cells in medium + 10% FCS (left hand panels) compared to the same cells held outside the cell cycle in medium + 0.1%FCS (right hand panel) B. […] C. Sequential Western blots of Cdk1 and Cdk4 expression in RT112 human bladder cancer cells at 0 - 10 days after exposure to 5 mM linear, end-capped, […].

H460 cells = assay: Cell cycle phase distribution (DNA histograms); format: cell-based, human
From the text: as §2

[5] = test system: Cdk1 and Cdk4 expression in H460 human non-small cell lung cancer cells; assay: Western blotting of Cdk1 and Cdk4 expression, H460; format: cell-based; details: H460, 200 μM, 24 hours, Western blot
From the text: This co-expression is unaffected by cytocidal doses of cisdiamminedichloroplatinum but can accompany spontaneous cancer cell death. Whether or not Cdk1/Cdk4 co-expression remained constant in cancer cells dying as a result of exposure to PRGPRP was thus examined by Western blotting.
as §1

Which “improvement in selective cancer cell cytotoxicity” value ([1]; cyclic amphiphilic cassettes compared with the earlier PRGPRP peptides) does the source give for “Cyc-[FPPRGPRPVKLALKLALK] (head to tail) [THR53, cyclic amphiphilic analogue, Cyc-[…]]” here?
Its value is “fifty- to a hundred-fold improvement”.

And the “time at which cell killing reached a maximum” value ([1]; for the majority of cell lines)?
The value was at most 4 days.

What about the “effect on MRC5-hTERT fibroblasts, time lapse” value [2] of the same substance?
Its value is “unaffected”.

And the ATP levels (NCI-H460 cells [3])?
Its ATP levels is “progressive diminution”.

And the mitochondrial oxidation/reduction (NCI-H460 cells [4])?
Its mitochondrial oxidation/reduction is “without change”.

What about the “effect on serum-deprived MCF7 cells” value (MCF7 breast cancer cells; medium + 0.1%FCS, cells held outside the cell cycle) of the same substance?
Its value is “no effect”.

What about the “effect on cycling MCF-7 cells” value (MCF7 breast cancer cells; medium +10% FCS) of the same substance?
The value was “killed”.

And the “effect on cell cycle phase distribution” value (H460 cells)?
The value was “no effect”.

What about the Cdk4 expression [5] of the same substance?
Its Cdk4 expression is “complete disappearance”.
